These results are taken from patent publication US20260226022A1, “CRYSTAL FORM AND USE OF PARP7 INHIBITOR AND SALT THEREOF” (QILU PHARMACEUTICAL CO., LTD., priority 2023, published 2026).

Entries after “also recorded” stand apart in the source; their conditions may differ.

Series [1] in a line: Hygroscopicity test by dynamic vapor sorption (DVS). To be noted: for Hygroscopicity evaluation: Chinese Pharmacopoeia 2020 classes; for Weight gain at 80% RH / Weight gain at 90% RH: DVS, 25° C.; for Crystal form after DVS: XRPD before and after the DVS test. It counts as physicochemical. As for the experimental part:
The moisture adsorption of the sample was determined using a dynamic vapor sorption instrument from DVS Intrinsic. The sample was placed in a tared sample basket and weighed by the instrument automatically and analyzed according to the parameters in Table 10.

Series [2] is described as follows: In vivo pharmacokinetic determination in mice (intravenous bolus and oral). Also noted: species or system C57BL/6 mice.
Series [3] can be described thus: In vivo pharmacokinetic determination in rats (intravenous bolus and oral). Also noted: species or system SD rats. The source says: To study the in vivo plasma pharmacokinetic behavior of the compounds of the present application after single intravenous bolus injection and oral administration, using male C57BL/6 mice or SD male rats as tested animals.
Healthy adult C57BL/6 mice or SD rats (3 rats/group), male, from Shanghai Jihui Laboratory Animal Breeding Co., Ltd. and Charles River Laboratories Co., Ltd.
The intravenous bolus injection and oral groups were consisted of 3 mice or rats, and the dose of intravenous bolus injection was 1 mg/kg in a volume of 5 mL/kg, and the dose of oral administration was 5 mg/kg in a volume of 10 mL/kg. The solvent was 5% DMSO/5% Kolliphor HS15/90% Saline.
After the animals were administered, 0.02 mL of blood was collected intravenously at 0.0833(IV), 0.25, 0.5, 1, 2, 4, 8, and 24 hours. Blood was placed in EDTA-K2 tubes, centrifuged at 4° C. and 4600 rpm for 5 min to separate the plasma, and stored at −80° C.
1) 10 μL of plasma sample was precipitated by adding 200 μL of acetonitrile, vortexed and mixed, and centrifuged for 15 min.
2) The supernatant after treatment was diluted with water, and then analyzed for the concentration of the tested compounds by LC/MS/MS.
• Liquid phase conditions: Shimadzu LC-30AD; • Mass spectrometry conditions: AB Sciex API 5500; • Chromatographic column: Phenomenex Kinetex 2.6 μm C18; • Mobile phase: A: 5 mM ammonium acetate aqueous solution (containing 0.05 vol % of formic acid); B: acetonitrile (containing 0.1 vol % of formic acid) flow rate: 0.5 mL/min;
Pharmacokinetic parameters were calculated using WinNonlin 8.0 and the pharmacokinetic parameters of the drugs administered intravenously and orally to mice or rats are shown in Tables 17 and 18 below. Wherein, “Dose” denotes the administered dose, “CL” denotes the plasma clearance, “Vss” denotes the volume of distribution at steady state of the drug, “T1/2” denotes the half-life of the drug, “AUC” denotes the area under the concentration-time curve. “Cmax” denotes the peak drug concentration, and “F” indicates bioavailability.

Series [4] can be described thus: Influence factor tests (stability at temperature, humidity, light; HPLC purity and XRPD). Type of series: physicochemical. On the procedure: The purity was assayed using HPLC and the crystal form was assayed using XRPD on day 0, 2 and 7, and the experimental results are shown in Table 11.
The purity was assayed using HPLC and the crystal form was assayed using XRPD on day 0, 5 and 10, and the experimental results are shown in Table 12.

In a further series the target is T1, PARP7 (Homo sapiens, UniProt Q7Z3E1).
T1 sequence (Q7Z3E1 1-657): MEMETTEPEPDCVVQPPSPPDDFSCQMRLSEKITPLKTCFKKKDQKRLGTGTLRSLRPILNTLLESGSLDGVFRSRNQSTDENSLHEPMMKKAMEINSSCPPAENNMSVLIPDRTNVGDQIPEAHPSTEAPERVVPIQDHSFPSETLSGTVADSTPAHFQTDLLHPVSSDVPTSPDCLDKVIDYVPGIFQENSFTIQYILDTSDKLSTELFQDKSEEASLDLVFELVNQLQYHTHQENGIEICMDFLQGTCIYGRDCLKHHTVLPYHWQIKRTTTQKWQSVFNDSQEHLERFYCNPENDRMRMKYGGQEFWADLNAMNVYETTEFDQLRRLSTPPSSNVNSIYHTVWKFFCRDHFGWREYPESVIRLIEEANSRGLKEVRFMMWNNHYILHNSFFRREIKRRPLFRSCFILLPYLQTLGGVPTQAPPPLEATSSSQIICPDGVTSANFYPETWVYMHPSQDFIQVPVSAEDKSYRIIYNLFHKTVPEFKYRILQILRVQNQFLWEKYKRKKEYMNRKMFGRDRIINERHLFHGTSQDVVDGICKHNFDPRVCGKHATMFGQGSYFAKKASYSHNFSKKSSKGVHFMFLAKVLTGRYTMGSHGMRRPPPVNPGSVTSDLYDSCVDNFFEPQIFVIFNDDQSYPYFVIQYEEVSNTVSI
As to the kind of experiment: PARP7 in vitro enzymatic assay. It counts as biochemical. On the procedure: In this experiment, the inhibitory effect of the compound of formula (I) on PARP7 enzyme activity was tested by serial dilution of the tested compounds and assayed in replicates. 1. A histone-coated 384-well plate was prepared by adding 25 μL of histone solution to each well and incubating at 4° C. overnight. 2. PBST buffer, blocking buffer and assay buffer were prepared. 3. The histone-coated 384-well plate was washed 3 times using PBST buffer. Blocking was performed at room temperature for 1 hour using 50 μL of blocking buffer. The plate was washed 3 times using PBST buffer. 4. Compound preparation: A 2000× compound was prepared in a 96-well source plate. 50 nL of the compound was transferred from the source plate to a 96-well intermediate plate. Each well was supplemented with 39.95 μL of assay buffer. The plate was shaken well and centrifuged at 1000 rpm for 1 minute. 5 μL of the compound in DMSO was transferred to each well. 5. Enzymatic reaction: An enzyme mixture was incubated at 25° C. for 10 minutes. 10 μL of the enzyme mixture was added and incubated with the compound for 10 minutes at room temperature. 10 μL of assay buffer was added to the negative control wells of the assay plate. 10 μL of 2.5× Biotin-NAD+ was added to each well, followed by incubation at 25° C. for 60 min. […] The plate was immediately read using Paradigm and detected for reads at Ex550/Em620. […]

Where [5] appears, read: male, mouse, plasma, C57BL/6 mice, intravenous, 1 mg/kg.
The mark [6] stands for this setting: male, mouse, plasma, C57BL/6 mice, oral, 5 mg/kg.
Setting [7] is: male, rat, plasma, SD rats, intravenous, 1 mg/kg.
The mark [8] stands for this setting: male, rat, plasma, SD rats, oral, 5 mg/kg.

As to `O=C(OCCc1c[nH]c(=O)c(C(F)(F)F)c1)N1CCN(c2ncc(C(F)(F)F)cn2)CC1` [Crystal form X], in series [1] (listed as crystal form X), the Hygroscopicity evaluation result was “slight hygroscopicity”, the “Weight gain at 80% RH” value came out at 1.4% and the “Crystal form after DVS” value is recorded as “no transformation of the crystal”.
One may read the AUC as the area under the concentration-time curve, a measure of exposure. A low value points to low exposure. As a reminder, the Cmax is the peak of the concentration-time curve. As usually defined, the half-life is the time needed for the level to fall by half in the phase considered. For the compound `C[C@@H](COCCC(=O)N1CCN(c2ncc(C(F)(F)F)cn2)CC1)Nc1cn[nH]c(=O)c1C(F)(F)F` [RBN-2397], the F in series [2] (C57BL/6 mice, oral, 5 mg/kg) is listed as 14%; in series [3] (SD rats, oral, 5 mg/kg), 27%. Further, the AUC came out at 288 ng·h/mL in series [2] (setting [5]), 203 ng·h/mL in series [2] (setting [6]), 193 ng·h/mL in series [3] (setting [7]) and 264 ng·h/mL in series [3] (setting [8]). The clearance in series [2] (setting [5]) was 56.7 mL/min/kg; in series [3] (setting [7]) it was 85 mL/min/kg. Moreover, the Vd in series [2] (male, mouse, plasma, C57BL/6 mice, intravenous, 1 mg/kg, read-out: Vss) came to 0.6 L/kg; in series [3] (male, rat, plasma, SD rats, intravenous, 1 mg/kg, read-out: Vss), 1.2 L/kg. The Cmax in series [2] (setting [6]) was 612 ng/mL; in series [3] (setting [8]), 319 ng/mL. This compound also had a half-life in series [3] (setting [7]) of 12 min.
With `O=C(OCCc1c[nH]c(=O)c(C(F)(F)F)c1)N1CCN(c2ncc(C(F)(F)F)cn2)CC1.[Na+]` [Crystal form I], the Hygroscopicity evaluation entry in series [1] is listed as “Hygroscopic (hygroscopic weight gain of less than 15.0% but not less than 2.0%)”; in series [1] (listed as crystal form I), “had hygroscopicity; also recorded: slightly hygroscopic”. For the same compound, the “Weight gain at 80% RH” value in series [1] and in series [1] (listed as crystal form I) was 13.29% each time. Moreover, in series [1], the “Weight gain at 90% RH” value is 13.77%. Besides, the “Purity (Area %)” value is reported as 99.69% Area % in series [4] (25° C./75% RH, day 5); 99.72% Area % in series [4] (25° C./75% RH, day 10); 99.71% Area % in series [4] (25° C./90% RH, day 5); 99.74% Area % in series [4] (25° C./90% RH, day 10); 99.71% Area % in series [4] (40° C., day 5); 99.70% Area % in series [4] (40° C., day 10). For the same compound, the “Purity (Area %)” value is given as 99.72% Area % in series [4] (60° C., day 5); 99.67% Area % in series [4] (60° C., day 10); 99.67% Area % in series [4] (Light exposure, day 5); 99.61% Area % in series [4] (Light exposure, day 10); 99.69% Area % in series [4] (T0, day 0). Moreover, the XRPD result in series [4] (Light exposure, day 5) is given as “Crystal form I”. Besides, the results for the “Physicochemical stability (conclusion in words)” value in series [4] (high humidity) and in series [4] (high temperature) were “a transformation of the crystal occurs under high humidity conditions” and “physicochemical stable at high temperature”, respectively.
With `O=C(OCCc1c[nH]c(=O)c(C(F)(F)F)c1)N1CCN(c2ncc(C(F)(F)F)cn2)CC1` [Crystal form IV], in series [1] (listed as crystal form IV), the Hygroscopicity evaluation result was “slight hygroscopicity; also recorded: slightly hygroscopic”. The “Weight gain at 80% RH” value in series [1] and in series [1] (listed as crystal form IV) was 1.07% each time. For the same compound, the “Weight gain at 90% RH” value in series [1] is reported as 1.11%. Also, the “Crystal form after DVS” value in series [1] (listed as crystal form IV) is listed as “no transformation of the crystal; also recorded: unchanged”. For the same compound, the “Purity (Area %)” value in series [4] (40° C./75% RH, day 2) is listed as 99.72 Area %; in series [4] (40° C./75% RH, day 7), 99.62 Area %; in series [4] (60° C., day 2), 99.73 Area %; in series [4] (60° C., day 7), 99.65 Area %; in series [4] (T0, day 0), 99.73 Area %. For the same compound, the “Physicochemical stability (conclusion in words)” value in series [4] (high humidity) and in series [4] (high temperature) was “relatively stable” throughout.
In the case of `O=C(OCCc1c[nH]c(=O)c(C(F)(F)F)c1)N1CCN(c2ncc(C(F)(F)F)cn2)CC1` [Compound of formula (I), 2-(6-oxo-5-(trifluoromethyl)-1,6-dihydropyridin-3-yl)ethyl-4-(5-(trifluoromethyl)pyrimidin-2-yl) piperazine-1-carboxylate], on PARP7, the “Inhibition of PARP7 enzyme activity (conclusion in words)” value is recorded as “can effectively inhibit PARP7 enzyme activity”. Further, the F in series [2] (C57BL/6 mice, oral, 5 mg/kg) came out at 80%; in series [3] (SD rats, oral, 5 mg/kg), 47%. Moreover, the “Exposure in plasma compared with control compound RBN-2397” value in series [2] (mouse plasma, same dose, intravenous bolus injection and oral administration) is “significantly higher exposure”; in series [3] (rat plasma, same dose, intravenous bolus injection and oral administration), “significantly higher exposure”.
